# According to ChEMBL document CHEMBL1137815, “New cadinene sesquiterpenoids from the Formosan soft coral Xenia puerto-galerae” (2002):
# Experiments:
# [1] = system: A549; assay: Cytotoxicity against human A549 cells by MTT method; format: functional; settings: read-out: ED50 (the source's name)
# [2] = system: P388; assay: Cytotoxicity against mouse P388 cells by MTT method; format: functional; settings: read-out: ED50 (the source's name)
structure (smiles),measurement,setting,value
C=C(C)[C@H]1[C@@H]2C[C@@H](C)CC[C@H]2C(C)=C[C@H]1O [XENITORIN A],EC50,[1],0.79 µg/mL
C=C(C)[C@@H]1C(=O)C=C(C)[C@]2(O)CC[C@H](C)C[C@@H]12 [XENITORIN E],EC50,[1],1.86 µg/mL
same,EC50,[2],3.69 µg/mL
C=C(C)[C@@H]1C(=O)C=C(C)[C@@H]2CC[C@H](C)C[C@@H]12 [XENITORIN B],EC50,[1],> 50 µg/mL
same,EC50,[2],> 50 µg/mL
C=C(C)[C@@H]1C(=O)C=C(C)[C@@]2(O)CC[C@H](C)C[C@@H]12 [XENITORIN F],EC50,[1],> 50 µg/mL
same,EC50,[2],> 50 µg/mL
C=C(C)[C@@H]1C=C[C@](C)(O)[C@@H]2CC[C@H](C)C[C@H]21 [XENITORIN C],EC50,[1],> 50 µg/mL
same,EC50,[2],> 50 µg/mL
C=C(C)[C@@H]1[C@H](O)[C@@H]2O[C@]2(C)[C@@H]2CC[C@H](C)C[C@@H]12 [XENITORIN D],EC50,[1],> 50 µg/mL
same,EC50,[2],> 50 µg/mL
